Assay results: DBAASP
≈ marks a conversion by molar mass, not a printed value. Each block holds one compound with its values, some of them ahead of it.

Experiments:
Assay in all cases: ≥ marks a high value that may be exact or a test limit, other limits are often not marked, values filed in µg/mL are converted to µM
[1] = test system: Bacillus subtilis CMCC 63501
[2] = test system: Escherichia coli CICC 10670
[3] = test system: Listeria monocytogenes ATCC 19115
[4] = test system: Salmonella enterica subsp. enterica serovar Typhimurium ATCC 14028
[5] = test system: Staphylococcus aureus ATCC 6538
[6] = test system: Acinetobacter baumannii ATCC 19606
Bacillus megaterium = test system: Bacillus megaterium
[7] = test system: Candida albicans ATCC 90028
[8] = test system: Candida parapsilosis ATCC 22019
[9] = test system: Enterococcus faecalis ATCC 29212
[10] = test system: Escherichia coli ATCC 25922
[11] = test system: Escherichia coli ATCC 35218
Escherichia coli ML-35p = test system: Escherichia coli ML-35p
[12] = test system: Klebsiella pneumoniae ATCC 13883
Listeria ivanovii = test system: Listeria ivanovii
[13] = test system: Pseudomonas aeruginosa ATCC 27853
Saccharomyces cerevisiae = test system: Saccharomyces cerevisiae
[14] = test system: Salmonella enterica subsp. enterica serovar Enteritidis
[15] = test system: Staphylococcus aureus ATCC 25923
[16] = test system: Staphylococcus aureus ATCC 43300
[17] = test system: Staphylococcus aureus ATCC BAA-44
[18] = test system: Staphylococcus aureus ST1065
[19] = test system: Enterococcus faecalis ATCC 51299
[20] = test system: Enterococcus faecium ATCC 19434
[21] = test system: Klebsiella pneumoniae ATCC 49472
[22] = test system: Klebsiella pneumoniae ATCC BAA-2814
[23] = test system: Staphylococcus aureus ATCC 12600
[24] = test system: Staphylococcus aureus ATCC BAA-2312
Escherichia coli TOP 10 = test system: Escherichia coli TOP 10
Escherichia coli W3110 = test system: Escherichia coli W3110
[25] = test system: Klebsiella pneumoniae ATCC BAA-1705
[26] = test system: Staphylococcus aureus SH1000
Bacillus subtilis 168 = test system: Bacillus subtilis 168
[27] = test system: Escherichia coli DH5alpha
[28] = test system: Mycobacterium tuberculosis H37Ra
[29] = test system: Pseudomonas aeruginosa PAO1
[30] = test system: Staphylococcus aureus NRS 72
[31] = test system: Staphylococcus aureus USA 300
[32] = test system: Aspergillus oryzae NBRC 100959
[33] = test system: Candida viswanathii NBRC 10321
[34] = test system: Escherichia coli NBRC 3972
[35] = test system: Micrococcus luteus NBRC 3333
[36] = test system: Pseudomonas putida NBRC 100650
[37] = test system: Staphylococcus epidermidis NBRC 12993

MIC [1]: 10 µM (≈ 26 µg/mL)
MIC [2]: ≥ 40 µM
MIC [3]: 20 µM (≈ 51.9 µg/mL)
MIC [4]: 20 µM (≈ 51.9 µg/mL)
MIC [5]: 20 µM (≈ 51.9 µg/mL)
SMILES: CC(C)C[C@H](NC(=O)[C@H](Cc1ccccc1)NC(=O)[C@@H](NC(=O)[C@H](CC(C)C)NC(=O)[C@H](CC(=O)O)NC(=O)[C@H](CCCCN)NC(=O)[C@H](C)NC(=O)[C@@H](NC(=O)[C@H](CC(C)C)NC(=O)[C@@H](NC(=O)[C@H](C)N)[C@@H](C)O)[C@@H](C)O)[C@@H](C)O)C(=O)N[C@@H](CCC(N)=O)C(=O)N[C@@H](CC(=O)O)C(=O)N[C@@H](Cc1ccc(O)cc1)C(=O)N[C@@H](CCCCN)C(=O)N[C@@H](CCCCN)C(=O)N[C@H](C(=O)N[C@@H](CCCCN)C(=O)N[C@@H](CCCCN)C(=O)N[C@@H](CCCN=C(N)N)C(=O)N[C@H](C(=O)N[C@@H](CCCCN)C(=O)O)C(C)C)[C@@H](C)O [ATLTAKDLTFLQDYKKTKKRVK]

MIC [6]: 25 µM (≈ 40 µg/mL)
MIC (Bacillus megaterium): 1.56 µM (≈ 2.5 µg/mL)
MIC [7]: ≥ 100 µM
MIC [8]: ≥ 50 µM
MIC [9]: 12.5 µM (≈ 20 µg/mL)
MIC [10]: 25 µM (≈ 40 µg/mL)
MIC [11]: ≥ 50 µM
MIC (Escherichia coli ML-35p): ≥ 50 µM
MIC [12]: ≥ 100 µM
MIC (Listeria ivanovii): 5 µM (≈ 8 µg/mL)
MIC [13]: 60 µM (≈ 96 µg/mL)
MIC (Saccharomyces cerevisiae): 12.5 µM (≈ 20 µg/mL)
MIC [14]: ≥ 100 µM
MIC [15]: 3.12 µM (≈ 4.99 µg/mL)
MIC [16]: 3.1 µM (≈ 4.96 µg/mL)
MIC [17]: 3.12 µM (≈ 4.99 µg/mL)
MIC [18]: 3.12 µM (≈ 4.99 µg/mL)
SMILES: CC[C@H](C)[C@H](NC(=O)CNC(=O)[C@H](C)NC(=O)[C@H](CC(C)C)NC(=O)[C@H](C)NC(=O)[C@@H]1CCCN1C(=O)[C@H](CC(C)C)NC(=O)[C@@H](N)Cc1ccccc1)C(=O)N[C@@H](C)C(=O)NCC(=O)N[C@@H](CC(C)C)C(=O)N[C@@H](CC(C)C)C(=O)NCC(=O)N[C@@H](CCCCN)C(=O)N[C@H](C(=O)N[C@@H](Cc1ccccc1)C(N)=O)[C@@H](C)CC [FLPALAGIAGLLGKIF]

MIC [19]: ≥ 250 µM
MIC [20]: ≥ 250 µM
MIC [11]: ≥ 62.5 µM
MIC [21]: ≥ 125 µM
MIC [22]: ≥ 125 µM
MIC [13]: > 125 µM
MIC [4]: 125 µM (≈ 282 µg/mL)
MIC [23]: ≥ 250 µM
MIC [24]: ≥ 250 µM
SMILES: CC[C@H](C)[C@H](NC(=O)[C@H](CCC(N)=O)NC(=O)[C@H](CO)NC(=O)[C@H](C)NC(=O)[C@H](CC(C)C)NC(=O)[C@H](Cc1cnc[nH]1)NC(=O)[C@@H](NC(=O)[C@H](CC(C)C)NC(=O)[C@H](CC(C)C)NC(=O)[C@H](CCC(=O)O)NC(=O)[C@H](CCCCN)NC(=O)CNC(=O)[C@H](C)NC(=O)CNC(=O)[C@H](CCCCN)NC(=O)[C@H](Cc1ccccc1)NC(=O)[C@H](Cc1ccccc1)NC(=O)[C@H](CC(=O)O)NC(=O)[C@H](CC(C)C)NC(=O)[C@H](CC(C)C)NC(=O)CN)[C@@H](C)O)C(N)=O [GLLDFFKGAGKELLTHLASQI]

MIC (Escherichia coli TOP 10): 10.7 µM (≈ 25 µg/mL)
SMILES: CC[C@H](C)[C@H](N)C(=O)N[C@@H](CC(C)C)C(=O)N1CCC[C@H]1C(=O)N[C@@H](CC(C)C)C(=O)N[C@@H](CC(C)C)C(=O)N[C@@H](CCCCN)C(=O)N[C@@H](CCCCN)C(=O)N[C@@H](Cc1ccccc1)C(=O)NCC(=O)N[C@@H](CCCCN)C(=O)N[C@@H](CCCCN)C(=O)N[C@@H](Cc1ccccc1)C(=O)NCC(=O)N[C@@H](CCCCN)C(=O)N[C@@H](CCCCN)C(=O)N[C@H](C(=O)N[C@@H](Cc1c[nH]c2ccccc12)C(=O)N[C@@H](CCCCN)C(=O)N[C@@H](C)C(=O)N[C@@H](CC(C)C)C(N)=O)C(C)C [ILPLLKKFGKKFGKKVWKAL]

MIC (Escherichia coli W3110): 16 µM (≈ 35.6 µg/mL)
MIC [25]: ≥ 128 µM
SMILES: CC[C@H](C)[C@H](N)C(=O)N[C@@H](CC(C)C)C(=O)N[C@@H](Cc1c[nH]c2ccccc12)C(=O)N[C@@H](C)C(=O)N[C@@H](CS)C(=O)N[C@@H](Cc1c[nH]c2ccccc12)C(=O)NCC(=O)N[C@@H](CC(C)C)C(=O)N[C@@H](CCCCN)C(=O)N[C@@H](CC(C)C)C(=O)N[C@@H](CC(C)C)C(=O)N[C@@H](CCCN=C(N)N)C(=O)N[C@@H](Cc1ccc(O)cc1)C(=O)N[C@@H](CCCN=C(N)N)C(=O)N[C@@H](CCCN=C(N)N)C(=O)N[C@H](C(=O)N[C@@H](Cc1ccc(O)cc1)C(=O)O)[C@@H](C)CC [ILWACWGLKLLRYRRIY]

MIC [26]: ≥ 100 µM
SMILES: CC[C@H](C)[C@H](NC(=O)[C@H](CC(=O)O)NC(=O)[C@H](Cc1ccccc1)NC(=O)[C@H](CC(C)C)NC(=O)[C@@H](N)CCCCN)C(=O)N[C@H](C(=O)N[C@@H](CCCCN)C(=O)N[C@@H](CCCCN)C(=O)N[C@H](C(=O)N[C@H](C(=O)NCC(=O)N[C@@H](C)C(=O)N[C@@H](CC(C)C)C(=O)NCC(N)=O)C(C)C)C(C)C)C(C)C [KLFDIVKKVVGALG]

MIC (Bacillus subtilis 168): 0.6 µM (≈ 1.09 µg/mL)
MIC [27]: 10 µM (≈ 18.1 µg/mL)
MIC [28]: 20 µM (≈ 36.2 µg/mL)
MIC [29]: 20 µM (≈ 36.2 µg/mL)
MIC [30]: 5 µM (≈ 9.06 µg/mL)
MIC [31]: 7 µM (≈ 12.7 µg/mL)
SMILES: CC(C)C[C@H](NC(=O)[C@H](Cc1c[nH]c2ccccc12)NC(=O)[C@H](CCCCN)NC(=O)[C@H](CCCN=C(N)N)NC(=O)[C@H](Cc1c[nH]c2ccccc12)NC(=O)[C@@H](NC(=O)CNC(=O)[C@@H](NC(=O)[C@H](Cc1c[nH]c2ccccc12)NC(=O)[C@H](CCCN=C(N)N)NC(=O)[C@H](CCCCN)NC(=O)[C@H](Cc1c[nH]c2ccccc12)NC(=O)[C@@H](N)CC(C)C)C(C)C)C(C)C)C(N)=O [LWKRWVGVWRKWL]

MIC [32]: 16.3 µM (≈ 25 µg/mL)
MIC [33]: 8.15 µM (≈ 12.5 µg/mL)
MIC [34]: 4.08 µM (≈ 6.25 µg/mL)
MIC [35]: 2.04 µM (≈ 3.13 µg/mL)
MIC [36]: 8.15 µM (≈ 12.5 µg/mL)
MIC [37]: 4.08 µM (≈ 6.25 µg/mL)
SMILES: CC[C@H](C)[C@H](NC(=O)[C@H](CCSC)NC(=O)[C@H](CCCN=C(N)N)NC(=O)[C@H](CCCN=C(N)N)NC(=O)[C@H](CC(C)C)NC(=O)[C@H](Cc1ccc(O)cc1)NC(=O)[C@H](CCCN=C(N)N)NC(=O)[C@H](CCCCN)NC(=O)[C@@H](NC(=O)[C@H](CCCCN)NC(=O)[C@@H](N)CCCN=C(N)N)[C@@H](C)CC)C(=O)O [RKIKRYLRRMI]
